From patent US20200245616A1, “A Disinfectant Composition with Extended Antimicrobial Effects” (Siamons International Inc., priority 2017, published 2020)

Columns and labels:
Format in all cases: cell-based
[1] = system: Staphylococcus aureus ATCC 6538; assay: AOAC Official Method 961.02 Germicidal Spray Method, bacteria on glass carriers; conditions: for killing Staphylococcus aureus: 1.0% QAH; for Staphylococcus aureus Growth Rate: 10 min contact
From the text: (§1) In this method, a series of glass slides (“carriers”) were inoculated with a representative test organism and the carriers were dried under ambient conditions. The dried organisms on the surface of the carrier were then sequentially treated with the composition of the present disclosure in the form of a spray product and were exposed for a pre-determined exposure time. After exposure, the carriers were sequentially transferred to a liquid subculture medium specifically selected to neutralize the composition of the present disclosure and to recover any surviving test organism. The carriers were incubated and visually examined for the presence or absence of growth. […] Required organisms for a disinfection claim include but are not limited to Staphylococcus aureus, Salmonella choleraesuis and Pseudomonas aeruginosa.
(§2) Method Adapted to the Preparation of Bacteria Cultures from −80° C. Freshly Recovered Stock. […] Added 10 μL of the thawed stock to a tube containing 10 mL synthetic broth and then vortexed to mix. Discarded the rest of cryovial stock. • Incubated the tube at 36 ±1° C. for 24 hours (h). Briefly vortexed the 24 h culture prior to transfer. For this final subculture step, inoculated two 20×150 mm tubes containing 10 mL synthetic broth with […] of the 24 h synthetic broth culture. • Incubated 48 h at 36±1° C. Using a Vortex-style mixer, mixed synthetic broth test cultures 3-4 seconds and let stand 10 minutes at room temperature before continuing. Removed the upper portion of each culture, leaving behind any debris or clumps, and transferred to a sterile tube. Titrated the culture by plating on synthetic agar plates, and diluted to 5×10^8 Colony Forming Units (CFU) per mL.
(§3) High volume screening studies were conducted in some cases where only 4 organism-inoculated carriers were treated at specified concentrations of CTAB. Vortex-mixed the inoculum periodically during inoculation of the carriers. • Immediately spread the inoculum uniformly over the majority of the carrier surface using a sterile loop. […] Covered dish immediately and repeated operation until 64 carriers had been prepared for the test. Once all of the carriers had been inoculated, placed in incubator at 37° C. for 40 minutes until dry.
(§4) • After the test organisms were dried on the surface of the carrier, each carrier was sprayed with the respective disinfection formulae 10 times in 10 seconds at a distance of 30 cm. • Treatment interval was timed. Ten (10) minutes after each carrier had been sprayed by the disinfectant, the excess liquid was removed and the carriers were transferred in a sequentially timed fashion into the culture tubes containing 20 ml neutralizer (Letheen Broth with 0.07% Lecithin/0.5% Tween 80/0.1% Sodium Thiosulfate) to neutralize the disinfectant. […] The percentage of the treated carriers showing growth after 48 hours was recorded.

[2] = system: Pseudomonas aeruginosa ATCC 15442; assay: as above; conditions: 10 min contact
From the text: as §1, §2, §3, §4

[3] = system: Trichophyton mentagrophytes ATCC 9533; assay: AOAC Official Method 961.02 Germicidal Spray Method, fungal conidia on glass carriers; conditions: 10 min contact
From the text: as §1
(§5) The conidiospore suspension was macerated in a tissue grinder. The suspension was filtered through sterile cotton to remove the hyphae and hyphal fragments.
(§6) Vortex-mixed the inoculum periodically during inoculation of the carriers. • Immediately spread the inoculum uniformly over the majority of the carrier surface using a sterile loop. […] High volume screening studies were conducted in some cases where only 4 organism-inoculated carriers were treated at specified concentrations of CTAB. Once all of the carriers had been inoculated, the carriers were placed in an incubator at 37° C. for 40 minutes until completely dry.
(§7) • After drying, each carrier was sprayed with the respective disinfection formulae 10 times in 10 seconds at a distance of 30 cm. • Timed the treatment interval. Ten (10) minutes after each carrier had been exposed to the disinfectant, the excess liquid was removed and the carriers were transferred in a sequentially timed fashion into the culture tubes containing 20 ml neutralization broth (Letheen Broth with 0.07% Lecithin /0.5% Tween 80) to neutralize the disinfectant. • After the carriers were deposited in the respective culture tubes, the tubes were recapped and the cultures were thoroughly resuspended. • Incubated all neutralization tubes at 28 ±1° C. for 14 days. • After 14 days, the cultures within the tubes were examined for growth. The percentage of the treated carriers showing growth was recorded.

[4] = system: Penicillium variable ATCC 32333; assay: as above; conditions: 10 min contact
From the text: as §1, §5, §6, §7

[5] = system: select bacteria and fungal organisms; assay: Germicidal spray disinfection, summary over the tested organisms; conditions: 0.01% QAH in CMC; 10-minute contact time
Method: All experiments were conducted according to the protocol outlined in AOAC Official Method 961.02 (Germicidal Spray Method), which is a carrier-based method used to evaluate disinfection efficacy of aerosol/pump-based spray products and liquid products for registration with regulatory agencies such as the U.S. EPA and Health Canada.
It was expected that if the CTAB was replaced by QAH's of similar structure that the disinfection of selected bacteria and fungal organisms would be similarly achieved. […] In the case of bacteria testing, the experimental procedure was as outlined in Example 1 for disinfection of bacterial cultures. In the case of fungal organisms, the experimental procedure was as outlined in Example 1 for the preparation of fungal cultures.

[6] = system: Aspergillus niger ATCC 6275; assay: AOAC Official Method 961.02 Germicidal Spray Method, fungal conidia on glass carriers; conditions: 10 min contact
From the text: as §1, §5, §6, §7

Compound	killing Staphylococcus aureus [1]	Staphylococcus aureus Growth Rate ([1]; CMC + QAH, QAH 0.010%) [%]	Staphylococcus aureus Growth Rate ([1]; CMC + QAH, QAH 0.100%) [%]	Staphylococcus aureus Growth Rate ([1]; CMC + QAH, QAH 1.000%) [%]	Staphylococcus aureus Growth Rate ([1]; Water + QAH, QAH 0.010%) [%]	Staphylococcus aureus Growth Rate ([1]; Water + QAH, QAH 0.100%) [%]	Staphylococcus aureus Growth Rate ([1]; Water + QAH, QAH 1.000%) [%]	Pseudomonas aeruginosa Growth Rate ([2]; CMC + QAH, QAH 0.010%) [%]	Pseudomonas aeruginosa Growth Rate ([2]; CMC + QAH, QAH 0.100%) [%]	Pseudomonas aeruginosa Growth Rate ([2]; CMC + QAH, QAH 1.000%) [%]	Pseudomonas aeruginosa Growth Rate ([2]; Water + QAH, QAH 0.010%) [%]	Pseudomonas aeruginosa Growth Rate ([2]; Water + QAH, QAH 0.100%) [%]	Pseudomonas aeruginosa Growth Rate ([2]; Water + QAH, QAH 1.000%) [%]	Trichophyton mentagrophytes Growth Rate ([3]; CMC + QAH, QAH 0.010%) [%]	Trichophyton mentagrophytes Growth Rate ([3]; CMC + QAH, QAH 0.100%) [%]	Trichophyton mentagrophytes Growth Rate ([3]; CMC + QAH, QAH 1.000%) [%]	Trichophyton mentagrophytes Growth Rate ([3]; Water + QAH, QAH 0.010%) [%]	Trichophyton mentagrophytes Growth Rate ([3]; Water + QAH, QAH 0.100%) [%]	Trichophyton mentagrophytes Growth Rate ([3]; Water + QAH, QAH 1.000%) [%]	Penicillium variable Growth Rate ([4]; CMC + QAH, QAH 0.010%) [%]	other results
CCCC[N+](CCCC)(CCCC)Cc1ccccc1.[Cl-] [BTBAC, Benzyltri-n-butylammonium chloride]	incapable of killing	100	100	100	100	100	100	–	–	–	–	–	–	–	–	–	–	–	–	–	–
CC[N+](CC)(CC)Cc1ccccc1.[Cl-] [BTEAC, Benzyltriethylammonium chloride]	incapable of killing	100	100	75	100	100	100	–	–	–	–	–	–	–	–	–	–	–	–	–	–
CCCCCCCCCCCCCCCCCC[N+](C)(C)C.[Cl-] [TMSAC, Trimethylstearylammonium chloride]	–	0	0	0	100	100	50	0	0	0	100	50	0	0	0	0	0	0	0	0	Penicillium variable Growth Rate ([4]; CMC + QAH, QAH 0.100%): 0%; Penicillium variable Growth Rate ([4]; CMC + QAH, QAH 1.000%): 0%; Penicillium variable Growth Rate ([4]; Water + QAH, QAH 0.010%): 0%; Penicillium variable Growth Rate ([4]; Water + QAH, QAH 0.100%): 0%; Penicillium variable Growth Rate ([4]; Water + QAH, QAH 1.000%): 0%; effectiveness against the target organisms [5]: remarkable effectiveness
Alkyldimethylbenzylammonium chloride [ADBAC]	–	–	–	–	–	–	–	0	0	0	0	0	0	0	0	0	0	0	0	0	Aspergillus niger Growth Rate ([6]; CMC + QAH, QAH 0.010%): 100%; Aspergillus niger Growth Rate ([6]; CMC + QAH, QAH 0.100%): 0%; Aspergillus niger Growth Rate ([6]; CMC + QAH, QAH 1.000%): 0%; Aspergillus niger Growth Rate ([6]; Water + QAH, QAH 0.010%): 100%; Aspergillus niger Growth Rate ([6]; Water + QAH, QAH 0.100%): 100%; Aspergillus niger Growth Rate ([6]; Water + QAH, QAH 1.000%): 0%; Penicillium variable Growth Rate ([4]; CMC + QAH, QAH 0.100%): 0%; Penicillium variable Growth Rate ([4]; CMC + QAH, QAH 1.000%): 0%; Penicillium variable Growth Rate ([4]; Water + QAH, QAH 0.010%): 0%; Penicillium variable Growth Rate ([4]; Water + QAH, QAH 0.100%): 0%; Penicillium variable Growth Rate ([4]; Water + QAH, QAH 1.000%): 0%; effectiveness against the target organisms [5]: remarkable effectiveness
